The text below walks through data of patent publication US20070015827A1, “Methods and compositions for treating ophthalmic conditions via serum retinol, serum retinol binding protein (RBP), and/or serum retinol-RBP modulation” (Sytera, Inc., priority 2005, published 2007).

Series [1] is described as follows: Steady-state retinoid levels and visual chromophore regeneration after 28 days of HPR. It counts as in vivo, mouse. Conditions: abca4 -/- (knockout line; background strain not stated), mouse, RPE tissue, intraperitoneal, HPR 10 mg/kg, read-out: HPR present within RPE tissue. As to the method:
(§1) Both steady-state retinoid levels and rates of visual chromophore regeneration were evaluated in abca4 −/− mice following a 28-day treatment period with 10 mg/kg HPR. Light-adapted levels of all visual cycle retinoids were reduced by ˜50% compared to control animals receiving only DMSO (FIG. 16A). Although HPR was present within RPE tissue (˜10 μM), the rate of rhodopsin regeneration (FIG. 16B) and removal of bleached photoproduct (Figure 16C) were not affected. The calculated time constant for regeneration of visual chromophore was nearly identical for both DMSO- and HPR-treated mice (0.37 h time constant to fully regenerate visual chromophore, FIG. 16D).
(§2) Panels D-F of FIG. 9 are electrophysiological measurements of rod function (panel D), rod and cone function (panel E) and recovery from photobleaching (panel F).

Series [2] concerns abca4 −/− mice. The description is as above. Format: in vivo, mouse. The method, then: as §1, §2
For series [3] the following is noted: cited from earlier work.
In a further series the test system is abcr null mutant mice. Put plainly: Lipofuscin autofluorescence in RPE and light microscopy of retina. Format: in vivo, mouse.
The conditions of series [4]: in vivo; cited from earlier work.
The subject of a further series is abca4 null mutant mice. The experiment in a line: Serum retinol after 28 days of daily HPR (LC/MS, HPLC). It counts as in vivo, mouse. To be noted: for effect on serum retinol (in words): ABCA4 null mice. The method, then:
ABCA4 null mutant mice were given the indicated dose of HPR in DMSO (i.p.) daily for 28 days (n=4 mice per dosage group). At the end of the study period, blood samples were taken and serum was prepared. Following acetonitrile precipitation of serum proteins, the concentrations of retinol and HPR were determined from the soluble phase by LC/MS (see FIG. 7). Identity of the eluted compounds was confirmed by UV-vis absorption spectroscopy and co-elution of sample peaks with authentic standards.
Analysis of Serum Retinol. Whole blood was collected from tail veins of HPR-treated mice 18 hrs. following the final HPR dose (i.e., at day 28). Serum was obtained from whole blood following centrifugation at 1,500×g, 10 min. Serum proteins were precipitated with the addition of an equivolume of ice-cold acetonitrile and centrifugation (10,000×g, 10 min). An aliquot was removed from the soluble phase and analyzed by HPLC using an Agilent 1100 series capillary liquid chromatograph equipped with a diode-array detector. Chromatography was performed on a Zorbax SB C18 5 μm column (150×0.5 mm) equilibrated with acetonitrile/water/glacial acetic acid (80:18:2, v/v) at a flow rate of 10 μl/min.

Series [5] addresses interaction of TTR with RBP (Homo sapiens, UniProt P02753). Conditions: in vitro; cited from earlier work.
Another series concerns abca4 null mutant mouse. Put plainly: Effect of HPR on serum retinol, 14 days (Example 11). Format: in vivo. As to the method: Initial studies began by examining the effect of HPR on serum retinol. Animals were divided into three groups and given either DMSO, 10 mg/kg HPR, or 20 mg/kg HPR for 14 days. At the end of the study period, blood was collected from the animals, sera were prepared and an acetonitrile extract of the serum was analyzed by reverse phase LC/MS. UV-visible spectral and mass/charge analyses were performed to confirm the identity of the eluted peaks. Sample chromatograms obtained from these analyses are shown: FIG. 1a.—extract from an abca4 null mutant mouse receiving HPR vehicle, DMSO; FIG. 1b.-10 mg/kg HPR; FIG. 1c.-20 mg/kg HPR. […] For 20 mg/kg HPR, serum retinol is decreased 72%, see FIG. 7. The steady state concentrations of retinol and HPR in serum (at 20 mg/kg HPR) were determined to be 2.11 μM and 1.75 μM, respectively.

A further series relates to wild-type mice. The experiment in a line: Ocular retinoid content after 7 days of HPR (HPLC). It counts as in vivo, mouse. Conditions: HPR 5-20 mg/kg/day i.p. As to the method:
(§3) In one study, wild-type mice were given varied doses of HPR (5-20 mg/kg/day, i.p. in DMSO) for 7 days. Control mice received only DMSO. Mice were maintained on a 12 h/12 h light/dark cycle throughout the treatment period. At the end of the study, the ocular retinoid content was determined by high-performance liquid chromatography (HPLC). Light-adapted, rather than dark-adapted, retinoid profiles were obtained so that a measure of retinoids could be obtained while the visual cycle was actively regenerating chromophore. […] This finding is in sharp contrast to data obtained from analysis of mice treated with 13-cis retinoic acid. […] Reduced 11cRDH activity would lead to reduced levels of 11-cis retinal and accumulation of 11-cis retinol. Free 11-cis retinol would be rapidly esterified via LRAT activity resulting in increased 11-cis retinyl esters. This effect of 13-cis retinoic acid on retinoid biosynthesis was also observed in rats in Sieving P A, et al., Proc Natl Acad Sci USA. 2001; 98(4): 1835-40.

Series [6] can be described thus: Ocular retinoid content after 7 days of HPR (HPLC). It counts as in vivo, mouse. To be noted: mouse, RPE (retinal pigment epithelium), intraperitoneal, HPR 5-20 mg/kg/day i.p. in DMSO, dose-dependent, read-out: accumulation of HPR within the RPE. The method, then:
as §3

The subject of series [7] is abca4 −/− mice. The experiment in a line: HPR and retinaldehyde content after 7 days, dark- and light-adapted. Format: in vivo, mouse. Conditions: HPR 10 mg/kg/day. As to the method: The effect of HPR on visual chromophore biosynthesis was examined in a separate study in which a […] of HPR (10 mg/kg/day) was administered to abca4 −/− mice over a 7-day period.

The subject of series [8] is abca4 −/− mice. Put plainly: A2E levels after withdrawal of chronic treatment. Format: in vivo, mouse. Conditions: chronic treatment (HPR 10 mg/kg i.p.) stopped after 28 days; measured 12, 28 and 42 days later. The method, then:
Latent Effects of HPR on Arresting A2E Accumulation —One feature identified during the HPR trials was a therapeutic latency effect following withdrawal of HPR. In these studies, chronic treatment of abca4 −/− mice (10 mg HPR/kg, i.p.) was stopped after 28 days. A2E levels were then measured 12, 28 and 42 days following the final HPR dose. […] This effect was not observed in animals treated with 13-cis retinoic acid, a result that may be due to the capacity of RPE cells to adapt to, and maintain, low steady-state retinoid levels. […] These findings indicate that high steady-state levels of competitive inhibitors such as 13-cis retinoic acid must be maintained for therapeutic efficacy.

“Also recorded” adds a separate entry of the source.

In the case of `CC1=C(/C=C/C(C)=C/C=C/C(C)=C/C(=O)Nc2ccc(O)cc2)C(C)(C)CCC1` [HPR, N-(4-hydroxyphenyl)retinamide], in series [1], the concentration at 28 days was roughly 10 µM. In the series with abca4 −/− mice [2] (HPR 10 mg/kg), the “removal of bleached photoproduct” value is “not affected”. The “regeneration of visual chromophore (rate of rhodopsin regeneration)” value with abca4 −/− mice [2] (HPR 10 mg/kg daily) was “not affected; also recorded: does not affect; also recorded: normal”. Further, the “calculated time constant to fully regenerate visual chromophore” value with abca4 −/− mice [2] (HPR 10 mg/kg, nearly identical for DMSO) is 0.37 h. Besides, the observed toxicities entry in series [3] (4800 mg/m^2 dose, three times daily) was “minimal”. The “plasma concentration after high fat meals versus carbohydrate meals” value in series [3] (human, in vivo) is “three times greater”. Besides, in the series with abcr null mutant mice (HPR daily for 28 days), the “lipofuscin autofluorescence in the RPE” value is “significantly reduces; also recorded: less than that of an age-matched wild-type animal”. For the same molecule, the “retinal morphology (light microscopy)” value in the series with abcr null mutant mice (HPR-treated animals) is given as “no aberrant morphology”. Also, the “effect on serum retinol and RBP” value in series [4] is “reductions in serum retinol and RBP; also recorded: profound reductions”. Further, the “effect on serum retinol (in words)” value in the series with abca4 null mutant mice is “profound reductions”; with abca4 null mutant mice (listed as Fenretinide), “potently and reversibly reduces”; in the series on abca4 null mutant mice (listed as fenretinide) it was “lowered serum retinol levels”. Also, the serum retinol reduction with abca4 null mutant mice (HPR 2.5 mg/kg daily, 28 days) worked out at 20%. Besides, the “reduction of RBP-retinol in the circulation” value in the series on abca4 null mutant mice (HPR 10 mg/kg daily, 28 days) was roughly 50%. The “effect on interaction of TTR with RBP” value in series [5] was “interferes with the normal interaction of TTR with RBP”. Besides, the “decrease of serum all-trans retinol” value in the series with abca4 null mutant mouse (10 mg/kg HPR, 14 days, vs DMSO) was determined as 40%. Further, the “decrease of serum retinol” value in the series with abca4 null mutant mouse (20 mg/kg HPR, 14 days, vs DMSO) was 72%. In addition, the “steady state concentration of retinol in serum” value in the series with abca4 null mutant mouse (at 20 mg/kg HPR) was determined as 2.11 µM. Also, in the series with wild-type mice, the “differences in light-adapted retinoid levels” value is “no significant differences”. Moreover, the concentration at 7 days in [6] lay within 4 to 6 µM. Further, in the series with abca4 −/− mice [7], the “effect on steady-state retinal levels or regeneration of visual chromophore” value is reported as “essentially no effect”. In the series on abca4 −/− mice [8], the “A2E levels after withdrawal (therapeutic latency effect)” value is “remained persistently low for several weeks”.
